# Where a name gives a salt, the structure may show the parent alone.
row,SMILES,melting point [°C]
1,CSc1ccccc1OC[C@@H](O)CN1CCC2(CC1)OCc1c2ccc2c1OCCO2 (as salt: oxalate),180
2,O[C@H](COc1ccccc1C1CCCC1)CN1CCC2(CC1)OCc1c2ccc2c1OCCO2 (as salt: oxalate),198 to 200
3,O[C@H](COc1ccccc1C1CCCC1)CN1CCC2(CC1)OCc1c2ccc2c1OCCCO2 (as salt: oxalate),169 to 171
